Results: the supplement of paper PMC10307832

Legend:
Experiment in all cases: relative viability (nuclei count vs DMSO), 5 days (fraction); higher = more cells survive
AZD6482 + Alpelisib = compound: Cc1cc([C@@H](C)Nc2ccccc2C(=O)O)c2nc(N3CCOCC3)cc(=O)n2c1 [AZD6482] + Cc1nc(NC(=O)N2CCC[C@H]2C(N)=O)sc1-c1ccnc(C(C)(C)C(F)(F)F)c1 [Alpelisib] (partner 2 µM)
How it was run: (§1)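 Each reported value is a median over duplicate plates. It expresses relative viability: treated-well nuclei count divided by vehicle-well nuclei count. Lung cancer cell lines in 1536-well plates were dosed by pin tool a day after seeding, alone with one drug or with a fixed anchor-drug dose plus five library-drug doses (not always all listed) in √10 steps, and nuclei were counted after 5 days.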

AZD6482 + OSI-027 = compound: Cc1cc([C@@H](C)Nc2ccccc2C(=O)O)c2nc(N3CCOCC3)cc(=O)n2c1 [AZD6482] + COc1cccc2cc(-c3nc([C@H]4CC[C@H](C(=O)O)CC4)n4ncnc(N)c34)[nH]c12 [OSI-027] (partner 0.5 µM)
How it was run: as §1

AZD6482 + Vorinostat = compound: Cc1cc([C@@H](C)Nc2ccccc2C(=O)O)c2nc(N3CCOCC3)cc(=O)n2c1 [AZD6482] + O=C(CCCCCCC(=O)Nc1ccccc1)NO [Vorinostat] (partner 1 µM)
How it was run: as §1

[1] = compound: COc1cc2nc(N3CCCN(C)CC3)nc(NC3CCN(Cc4ccccc4)CC3)c2cc1OC + Cc1nc(Nc2ncc(C(=O)Nc3c(C)cccc3Cl)s2)cc(N2CCN(CCO)CC2)n1 [Dasatinib] (partner 0.075 µM)
How it was run: as §1

Row | Cell Line | relative viability (AZD6482 + Alpelisib; first compound 0.08 µM) | relative viability (AZD6482 + Alpelisib; first compound 0.253 µM) | relative viability (AZD6482 + Alpelisib; first compound 0.8 µM) | relative viability (AZD6482 + Alpelisib; first compound 2.53 µM) | relative viability (AZD6482 + Alpelisib; first compound 8 µM) | relative viability (AZD6482 + OSI-027; first compound 0.08 µM) | relative viability (AZD6482 + OSI-027; first compound 0.253 µM) | relative viability (AZD6482 + OSI-027; first compound 0.8 µM) | relative viability (AZD6482 + OSI-027; first compound 2.53 µM) | relative viability (AZD6482 + OSI-027; first compound 8 µM) | relative viability (AZD6482 + Vorinostat; first compound 0.08 µM) | relative viability (AZD6482 + Vorinostat; first compound 0.253 µM) | relative viability (AZD6482 + Vorinostat; first compound 0.8 µM) | relative viability (AZD6482 + Vorinostat; first compound 2.53 µM) | relative viability (AZD6482 + Vorinostat; first compound 8 µM) | relative viability ([1]; first compound 0.2 µM) | relative viability ([1]; first compound 0.6325 µM) | relative viability ([1]; first compound 2 µM) | relative viability ([1]; first compound 6.325 µM)
1 | NCI-H838 | 0.8 | 0.98 | 0.881 | 0.679 | 0.771 | 0.334 | 0.378 | 0.355 | 0.199 | 0.27 | 0.631 | 0.701 | 0.664 | 0.54 | 0.538 | 0.316 | 0.319 | 0.33 | 0.237
2 | HARA | 0.459 | 0.762 | 0.849 |  | 0.708 | 0.318 | 0.528 | 0.633 | 0.249 | 0.376 | 0.557 | 0.574 | 0.465 | 0.357 | 0.437 | 0.275 | 0.271 | 0.255 | 0.266
3 | NCI-H2087 | 0.953 | 1.06 | 1.17 | 0.819 | 0.972 | 0.495 | 0.43 | 0.46 |  | 0.332 | 0.465 | 0.81 | 0.98 | 0.183 | 0.92 | 0.7 | 0.75 | 0.941 | 0.617
4 | NCI-H1437 | 0.819 | 0.842 | 0.809 | 0.641 | 0.741 | 0.983 | 0.855 | 1.07 | 0.471 | 0.567 | 0.955 | 0.921 | 0.997 | 0.738 | 0.468 | 0.48 | 0.454 | 0.492 | 0.384
5 | NCI-H650 | 1.11 |  | 0.997 | 0.656 | 0.778 | 0.588 |  | 0.457 | 0.305 | 0.356 | 0.464 | 0.489 | 0.372 | 0.256 | 0.301 | 0.48 | 0.472 | 0.441 | 0.38
6 | COR-L23 | 0.461 | 0.737 | 0.854 | 0.494 | 0.76 | 0.552 | 0.791 | 0.911 | 0.611 | 0.751 | 0.269 | 0.512 | 0.505 | 0.28 | 0.442 | 0.57 | 0.476 | 0.559 | 0.519
7 | COR-L 105 | 0.771 | 0.837 | 0.784 | 0.517 | 0.728 | 0.75 | 0.742 | 0.577 | 0.33 | 0.517 | 0.75 | 0.663 | 0.907 | 0.649 | 0.648 | 0.338 | 0.472 | 0.328 | 0.25
8 | LK-2 | 1.07 |  | 1.86 | 0.972 | 1.21 | 0.222 | 0.2 | 0.177 | 0.196 | 0.177 | 0.374 | 0.276 | 0.298 | 0.384 | 0.258 | 0.35 | 0.341 | 0.261 | 0.324
9 | 201T | 0.908 | 0.809 | 0.842 | 0.714 | 0.848 | 0.657 | 0.663 | 0.631 | 0.462 | 0.601 | 0.965 | 0.938 | 0.983 | 0.764 | 0.862 | 0.573 | 0.495 | 0.549 | 0.557
10 | NCI-H596 | 0.449 | 0.437 | 0.445 | 0.44 | 0.388 | 0.676 | 0.596 | 0.809 | 0.732 | 0.559 | 0.464 | 0.555 | 0.732 | 0.691 | 0.556 | 0.659 | 0.652 | 0.638 | 0.654
11 | H3255 | 0.531 | 0.54 | 0.614 | 0.335 | 0.496 | 0.618 | 0.53 | 0.554 | 0.411 | 0.392 | 0.741 | 0.871 | 0.764 | 0.697 | 0.689 | 0.401 | 0.5 | 0.448 | 0.342
12 | NCI-H647 | 0.622 |  | 0.778 | 0.459 | 0.526 | 0.459 | 0.513 | 0.612 | 0.335 | 0.315 | 0.63 | 0.55 | 0.473 | 0.41 | 0.619 | 0.201 | 0.233 | 0.192 | 0.149
13 | NCI-H2023 | 0.389 | 0.427 | 0.449 | 0.267 | 0.32 | 0.398 | 0.336 | 0.341 | 0.237 | 0.245 | 0.642 | 0.435 | 0.509 | 0.37 | 0.455 | 0.57 | 0.558 | 0.56 | 0.237
14 | NCI-H23 | 0.642 | 0.534 | 0.713 | 0.374 | 0.597 | 0.592 | 0.512 | 0.592 | 0.364 | 0.302 | 0.542 | 0.516 | 0.617 | 0.374 | 0.407 | 0.786 | 0.628 | 0.859 | 0.876
15 | NCI-H1944 | 0.6 | 0.518 | 0.6 | 0.421 | 0.51 | 0.389 | 0.417 | 0.428 | 0.249 | 0.301 | 0.544 | 0.498 | 0.609 | 0.43 | 0.469 | 0.199 | 0.245 | 0.204 | 0.232
16 | NCI-H1793 | 0.537 | 0.519 | 0.48 |  | 0.406 | 0.266 | 0.243 | 0.261 | 0.132 | 0.16 | 0.582 | 0.481 | 0.676 | 0.38 | 0.404 | 0.378 | 0.412 | 0.375 | 0.375
17 | NCI-H520 | 0.381 | 0.287 | 0.263 |  | 0.353 | 0.214 | 0.176 | 0.211 | 0.178 | 0.178 | 0.599 | 0.467 | 0.496 | 0.273 | 0.319 | 0.217 | 0.228 | 0.252 | 0.187
